Assay results: patent publication US20060004044A1, “3-glyoxylamideindoles for treating cancer” (Synta Pharmaceuticals Corp., priority 2001, published 2006)

Key:
[1] = tested on: MES-SA/DX5 multi-drug resistant human uterine sarcoma cell line; assay: In vitro anti-cancer activity against MDR cell line MES-SA/DX5; format: cell-based; conditions: for IC50: MES-SA/DX5 cells, 72 hours, MTS
Description: (§1) The cell lines were maintained in RPM11640(GIBCO) supplemented with 10% FCS, 100 units/ml penicillin, 100 ug/ml streptomycin, and 2 mM L-glutamine. The cells were split every third day and diluted to a concentration of 2×10^5 cells/ml one day before experiment. All experiments were performed on exponentially growing cell culture. Cell densities were 2.5×10^4 cells/ml in all experiment.
(§2) A stock solution of Compound (1) was prepared by dissolving the compound at a concentration of 1 mM in 100% DMSO. Final concentrations were obtained by diluting the stock solution directly into the tissue culture medium. Cells were incubated with varying concentrations of compounds for 72 hours and the IC50 was determined by MTS (i.e. […]) assay. IC50 stands for the concentration of compound required to inhibit 50% tumor cell growth.
(§3) In vitro activity was determined in two MDR (Multi Drug Resistant) human cancer cell lines. HL-60/TX1000 was isolated in vitro by subculturing HL-60 in progressively higher concentration of Taxol. HL-60/TX1000 cells over-express mdr-1 mRNA and p-glycoprotein, as determined by western blot and immunofluorescence labeling with antiPGP antibodies. The cell is cross-resistant to Taxol, Vincristine, Adriamycin, Etoposide and Doxorubicin. MES-SA/Dx5 was established in the presence of increasing concentrations of Doxorubicin. […] MES-SA/Dx5 was purchased from ATCC.
(§4) The procedure for culturing the cells and assaying cancer cell growth inhibition were as described in Example 3.
(§5) The protocol described in Example 3 was used to assay inhibition by Compounds (2)-(10) on the growth of the multi-drug resistant cell lines MES-SA/DX5 and HL60/TX1000.

[2] = tested on: MDA435 human breast tumor; assay: Tumor growth inhibition assay, human breast tumor (MDA435) xenograft model, oral treatment; format: in vivo, nude mice; conditions: for body weight change / loss: nude mice with MDA435 tumors, oral, Compound (5) 25 mg/kg, Compound (3) 50 mg/kg; for tumor growth inhibition (FIG. 2): nude mice, 3 times a week for 3 weeks
[3] = tested on: HL-60/TX1000 multi-drug resistant human myeloid leukemia cell line; assay: In vitro anti-cancer activity against MDR cell line HL-60/TX1000; format: cell-based; conditions: for IC50: Homo sapiens, HL-60/TX1000 cells, 72 hours, MTS
Description: as §1, §2, §3, §4, §5

H2 (human leukemia) = assay: In vitro anti-cancer activity, MTS assay, H2; format: cell-based; conditions: H2 cells, 72 hours
Description: (§6) The in vitro activity of the compounds was determined in the following […] human cancer cell lines. MDA435 (human breast cancer), HL-60 (human myeloid leukemia), DU-145 (human prostate cancer), MES-SA (human uterine sarcoma), H2 (human leukemia) were obtained from ATCC (American Type of Culture Collection).
as §1, §2

[4] = tested on: DU-145 (human prostate cancer); assay: In vitro anti-cancer activity, MTS assay, DU-145; format: cell-based; conditions: DU-145 cells, 72 hours
Description: as §6, §1, §2

[5] = tested on: MDA435 (human breast cancer); assay: In vitro anti-cancer activity, MTS assay, MDA435; format: cell-based; conditions: MDA-435 cells, 72 hours
Description: as §6, §1, §2

[6] = tested on: MES-SA (human uterine sarcoma); assay: In vitro anti-cancer activity, MTS assay, MES-SA; format: cell-based; conditions: MES-SA cells, 72 hours
Description: as §6, §1, §2

MCF-7 human breast tumor = assay: Tumor growth inhibition assay, human breast tumor (MCF-7) xenograft model; format: in vivo, nude mice (CD-1 nu/nu); conditions: nude mice; for tumor growth inhibition (FIG. 1): 3 times a week for 3 weeks
[7] = tested on: HL-60 (human myeloid leukemia); assay: In vitro anti-cancer activity, MTS assay, HL-60; format: cell-based; conditions: HL-60 cells, 72 hours
Description: as §6, §1, §2

## O=C(Nc1ccc2ncccc2c1)C(=O)c1cn(Cc2ccc(Cl)cc2)c2ccccc12 [Compound (5)]
[1]; Homo sapiens
  IC50: 50 nM
[2]
  body weight change / loss: without showing significant body weight loss
[2]; 25 mg/kg orally by gavage
  tumor growth inhibition (FIG. 2): significantly inhibit tumor growth
[3]; HL60/TX1000
  IC50: 50 nM

## CSc1nnc(NC(=O)C(=O)c2cn(Cc3ccc(Cl)cc3)c3ccccc23)[nH]1 [(6)]
[1]; Homo sapiens
  IC50: 50 nM
[3]; HL60/TX1000
  IC50: 50 nM

## O=C(Nc1ccon1)C(=O)c1cn(Cc2ccc(Cl)cc2)c2ccccc12 [(7)]
[1]; Homo sapiens
  IC50: 80 nM
[3]; HL60/TX1000
  IC50: 50 nM

## Cc1cc(NC(=O)C(=O)c2cn(Cc3ccc(C#N)cc3)c3ccccc23)sn1 [Compound (2)]
[1]; Homo sapiens
  IC50: 5 nM
[3]; HL60/TX1000
  IC50: 5 nM

## NC(=O)c1ccc(NC(=O)C(=O)c2cn(Cc3ccc(Cl)cc3)c3ccccc23)nc1 [(4)]
[1]; Homo sapiens
  IC50: 50 nM
[3]; HL60/TX1000
  IC50: 50 nM

## CN(c1ccccc1)n1cc(C(=O)C(=O)Nc2ccc3ncccc3c2)c2ccccc21 [(8)]
[1]; Homo sapiens, MES-SA/Dx5, 72 h
  IC50: 100 nM
[3]; HL60/TX1000, 72 h
  IC50: 100 nM

## NC(=O)c1ccc(NC(=O)C(=O)c2cn(Cc3ccc(Cl)cc3)c3ccccc23)cc1 [Compound (3)]
[1]; Homo sapiens
  IC50: 50 nM
[2]
  body weight change / loss: without showing significant body weight loss
[2]; 50 mg/kg orally by gavage
  tumor growth inhibition (FIG. 2): significantly inhibit tumor growth
[3]; HL60/TX1000
  IC50: 50 nM

## Cc1cc(NC(=O)C(=O)c2cn(Cc3ccc(Cl)cc3)c3ccccc23)sn1 [Compound (1), 2-(1-(4-Chloro-benzyl)-1-indol-3-yl)-N-(3-methyl-isothiazol-5-yl)-2-oxo-acetamide]
H2 (human leukemia)
  IC50: 5 nM
[4]
  IC50: 5 nM
[1]; Homo sapiens
  IC50: 10 nM
[1]; MES-SA/DX5
  anti-cancer activity against MDR cancer cell lines (in words): high anti-cancer activity
[5]
  IC50: 5 nM
[3]; HL-60/TX1000
  anti-cancer activity against MDR cancer cell lines (in words): high anti-cancer activity
[3]; HL60/TX1000
  IC50: 10 nM
[6]
  IC50: 5 nM
MCF-7 human breast tumor; 7.5 mg/kg intravenously
  tumor growth inhibition (FIG. 1): significantly inhibits tumor growth
MCF-7 human breast tumor; 10 mg/kg intravenously
  tumor growth inhibition (FIG. 1): significantly inhibits tumor growth
MCF-7 human breast tumor; 7.5 and 10 mg/kg
  toxicity: acceptable toxicity
MCF-7 human breast tumor; intravenously every second day, 10 mg/kg
  reduction of volume of tumors: greater than 50%
[7]
  IC50: 5 nM

## N#Cc1ccc(Cn2cc(C(=O)C(=O)Nc3ccncc3)c3ccccc32)cc1 [(9)]
[1]; Homo sapiens
  IC50: 50 nM
[3]; HL60/TX1000
  IC50: 50 nM

## CC[C@]1(O)C[C@H]2CN(CCc3c([nH]c4ccccc34)[C@@](C(=O)OC)(c3cc4c(cc3OC)N(C=O)[C@H]3[C@@](O)(C(=O)OC)[C@H](OC(C)=O)[C@]5(CC)C=CCN6CC[C@]43[C@@H]65)C2)C1 [Vincristine, reference compound]
[1]; Homo sapiens, MES-SA/Dx5, 72 h
  IC50: 1000 to 5000 nM
[1]
  IC50: 1000 nM

## Cc1cc(NC(=O)C(=O)c2cn(Cc3ccc(Cl)cc3)c3ccccc23)no1 [(10)]
[1]; Homo sapiens
  IC50: 50 nM
[3]; HL60/TX1000
  IC50: 50 nM
